Assay results as given in patent publication US9617602B2, “Methods and compositions for determining resistance to androgen receptor therapy” (Aragon Pharmaceuticals, Inc., priority 2012, dated 2017).
Read-outs that look alike come from different tables or passages of the source.

Assays:
[1] = test system: prostate specific antigen (PSA); type: in vivo
Text: Patients with mCRPC were assigned sequentially to dose levels in cohorts of 3 to 6 patients per dose level using standard 3×3 dose-escalation criteria.
Eligible patients who signed informed consent documents were initially enrolled into a dose escalation cohort where they will receive a single oral dose of ARN-509 followed by a one-week observation period (PK Week). Continuous dosing began on Cycle 1 Day 1 assuming no unacceptable toxicities were observed.
A minimum of 3 subjects at each dose level were monitored for a DLT through day 28 of Cycle 1.
The starting dose was 30 mg/day, with escalations to 60 mg, 90 mg, 120 mg, 180 mg, 240 mg, 300 mg, 390 mg, and 480 mg daily. It was anticipated that these dose levels span the anticipated pharmacologically active dose range and be within the safety margin indicated by the preclinical toxicology results.
Following the selection of 240 mg as the RP2D, additional eligible patients were enrolled in the Phase 2 portion of the study, consisting of 3 concurrent expansion cohorts at the MTD and/or RP2D to gather additional safety information and provide an initial signal of anti-tumor activity. The three expansion cohorts included:
It was expected that each patient with mCRPC would receive at least 3 cycles (12 weeks) of continuous treatment and each patient with non-metastatic CRPC will receive at least 4 cycles (16 weeks) of continuous treatment. Treatment was discontinued at any time for protocol-defined disease progression or unacceptable toxicity. Tumor evaluations were performed every 3 cycles (12 weeks) for patients with mCRPC and every 4 cycles (16 weeks) for patients with non-metastatic CRPC. Safety was assessed from the first dose through at least four weeks after the last dose or until resolution of drug-related toxicity, or when toxicity is deemed irreversible, whichever was longer.

[2] = test system: Class 2 resistant cell lines; assay: Endogenous gene transcriptional assay (real-time PCR of androgen responsive genes); type: cell-based, human
Method: Total RNA was isolated using the Aurum™ total RNA isolation kit (BIO-RAD, Hercules, Calif.). RNA (1 μg) was reverse transcribed using the iScript cDNA synthesis kit (BIO-RAD, Hercules, Calif.) to produce cDNA. Real-time PCR was performed using the Applied Biosystems 7900HT instrument and SYBR Green PCR Master Mix (Applied Biosystems, Foster City, Calif.). PCR reactions were performed in 6 μL according to the manufacturer's protocol and a thermocycle protocol of 95° C. for 10 minutes followed by 40 cycles of 95° C. for 15 seconds and 58° C. for 1 minute. Androgen responsive gene (PSA, SLUG, TMPRSS2, STEAP4, FKBP5, ORM1, NOV, FASN, NKX3.1, AMIGO2, BDNF, CAMK2N1, HPGD, NCAPD3, PLD1) expression was normalized to GAPDH expression and expressed relative to vehicle treatment of the parental cell line.

## CNC(=O)c1ccc(N2C(=S)N(c3cnc(C#N)c(C(F)(F)F)c3)C(=O)C23CCC3)cc1F [ARN-509]
[1]; Cycle 4
  PSA, Patient 10: 102 % of TO
  PSA, Patient 13: 16.2 % of baseline
[1]; Cycle 4, 8 and 10
  PSA decline from baseline, Patient 7: > 90%
[1]; Cycle 11 and 12
  PSA below study start, Patient 13: > 60%
[1]; Patient 1
  12 week PSA Response: 30.49
[1]; Patient 1, Treatment Cycle 19
  PSA at Time of BEAMing Analysis [Percent of Baseline]: 195.4% of Baseline
[1]; Patient 2
  12 week PSA Response: −61.8
[1]; Patient 2, Treatment Cycle 10
  PSA at Time of BEAMing Analysis [Percent of Baseline]: 337.08% of Baseline
[1]; Patient 3
  12 week PSA Response: 22.7
[1]; Patient 3, Treatment Cycle 4
  PSA at Time of BEAMing Analysis [Percent of Baseline]: 122% of Baseline
[1]; Patient 4
  12 week PSA Response: 12.4
[1]; Patient 4, Treatment Cycle 5
  PSA at Time of BEAMing Analysis [Percent of Baseline]: 134% of Baseline
[1]; Patient 5
  12 week PSA Response: −70.65
[1]; Patient 5, Treatment Cycle 8
  PSA at Time of BEAMing Analysis [Percent of Baseline]: 16% of Baseline
[1]; Patient 6
  12 week PSA Response: −90.02
[1]; Patient 6, Treatment Cycle 10
  PSA at Time of BEAMing Analysis [Percent of Baseline]: 84.6% of Baseline
[1]; Patient 7
  12 week PSA Response: −98.6
[1]; Patient 7, Treatment Cycle 4
  PSA [Percent of Day 0]: 1.4% of Day 0
[1]; Patient 7, Treatment Cycle 8
  PSA [Percent of Day 0]: 3.3% of Day 0
[1]; Patient 7, Treatment Cycle 10
  PSA [Percent of Day 0]: 5.6% of Day 0
[1]; Patient 7, Treatment Cycle 15
  PSA [Percent of Day 0]: 41.2% of Day 0
[1]; Patient 7, Treatment Cycle 19
  PSA [Percent of Day 0]: 97.2% of Day 0
[1]; Patient 7, Treatment Cycle 22
  PSA [Percent of Day 0]: 281.0% of Day 0
  PSA at Time of BEAMing Analysis [Percent of Baseline]: 281% of Baseline
[1]; Patient 8
  12 week PSA Response: −62.2
[1]; Patient 8, Treatment Cycle 16
  PSA at Time of BEAMing Analysis [Percent of Baseline]: 10.2% of Baseline
[1]; Patient 9
  12 week PSA Response: 26.38
[1]; Patient 9, Treatment Cycle 7
  PSA at Time of BEAMing Analysis [Percent of Baseline]: 185% of Baseline
[1]; Patient 10
  12 week PSA Response: 2.33
[1]; Patient 10, Treatment Cycle 4
  PSA [Percent of Day 0]: 102% of Day 0
[1]; Patient 10, Treatment Cycle 7
  PSA [Percent of Day 0]: 245% of Day 0
  PSA at Time of BEAMing Analysis [Percent of Baseline]: 245% of Baseline
[1]; Patient 11
  12 week PSA Response: −49.76
[1]; Patient 11, Treatment Cycle 8
  PSA at Time of BEAMing Analysis [Percent of Baseline]: 143.88% of Baseline
[1]; Patient 12
  12 week PSA Response: −56.65
[1]; Patient 12, Treatment Cycle 7
  PSA at Time of BEAMing Analysis [Percent of Baseline]: 99.47% of Baseline
[1]; Patient 13
  12 week PSA Response: −83.79
[1]; Patient 13, Treatment Cycle 4
  PSA [Percent of Day 0]: 16.2% of Day 0
[1]; Patient 13, Treatment Cycle 11
  PSA [Percent of Day 0]: 31.7% of Day 0
  PSA at Time of BEAMing Analysis [Percent of Baseline]: 31.7% of Baseline
[1]; Patient 13, Treatment Cycle 12
  PSA [Percent of Day 0]: 39.5% of Day 0
[1]; Patient 14
  12 week PSA Response: −43.21
[1]; Patient 14, Treatment Cycle 11
  PSA at Time of BEAMing Analysis [Percent of Baseline]: 150.5% of Baseline
[1]; Patient 15
  12 week PSA Response: 164.14
[1]; Patient 15, Treatment Cycle 3
  PSA at Time of BEAMing Analysis [Percent of Baseline]: 220% of Baseline
[1]; Patient 16
  12 week PSA Response: 89.09
[1]; Patient 16, Treatment Cycle 4
  PSA at Time of BEAMing Analysis [Percent of Baseline]: 189% of Baseline
[1]; Patient 17
  12 week PSA Response: −45.86
[1]; Patient 17, Treatment Cycle 4
  PSA at Time of BEAMing Analysis [Percent of Baseline]: 54.14% of Baseline
[1]; Patient 18
  12 week PSA Response: −95.65
[1]; Patient 18, Treatment Cycle 6
  PSA at Time of BEAMing Analysis [Percent of Baseline]: 7.34% of Baseline
[1]; Patient 19
  12 week PSA Response: −71.19
[1]; Patient 19, Treatment Cycle 11
  PSA at Time of BEAMing Analysis [Percent of Baseline]: 196.86% of Baseline
[1]; Patient 20
  12 week PSA Response: −30.88
[1]; Patient 20, Treatment Cycle 21
  PSA at Time of BEAMing Analysis [Percent of Baseline]: 89.3% of Baseline
[1]; Patient 21
  12 week PSA Response: −74.43
[1]; Patient 21, Treatment Cycle 10
  PSA at Time of BEAMing Analysis [Percent of Baseline]: 46.91% of Baseline
[1]; Patient 22
  12 week PSA Response: −82.7
[1]; Patient 22, Treatment Cycle 25
  PSA at Time of BEAMing Analysis [Percent of Baseline]: 0.19% of Baseline
[1]; Patient 23
  12 week PSA Response: 97.78
[1]; Patient 23, Treatment Cycle 8
  PSA at Time of BEAMing Analysis [Percent of Baseline]: 222.46% of Baseline
[1]; Patient 24
  12 week PSA Response: −74.86
[1]; Patient 24, Treatment Cycle 25
  PSA at Time of BEAMing Analysis [Percent of Baseline]: 4.89% of Baseline
[1]; Patient 25
  12 week PSA Response: −30.07
[1]; Patient 25, Treatment Cycle 12
  PSA at Time of BEAMing Analysis [Percent of Baseline]: 161% of Baseline
[1]; Patient 26
  12 week PSA Response: 96.51
[1]; Patient 26, Treatment Cycle 5
  PSA at Time of BEAMing Analysis [Percent of Baseline]: 214.85% of Baseline
[1]; Patient 27
  12 week PSA Response: −0.89
[1]; Patient 27, Treatment Cycle 13
  PSA at Time of BEAMing Analysis [Percent of Baseline]: 20.69% of Baseline
[1]; Patient 28
  12 week PSA Response: −33.59
[1]; Patient 28, Treatment Cycle 10
  PSA at Time of BEAMing Analysis [Percent of Baseline]: 126% of Baseline
[1]; Patient 29
  12 week PSA Response: −58.44
[1]; Patient 29, Treatment Cycle 13
  PSA at Time of BEAMing Analysis [Percent of Baseline]: 105% of Baseline
[1]; across all dose groups
  Patients exhibiting a 12 week ≧50% decline in PSA compared to baseline: 14/30
[1]; human, in vivo, po, 28 days
  Recommended Phase 2 dose (RP2D): 240 mg

## CNC(=O)c1ccc(N2C(=S)N(c3ccc(C#N)c(C(F)(F)F)c3)C(=O)C2(C)C)cc1F [Enzalutamide, enzalutamide]
[2]
  Transcriptional activity on endogenous androgen-responsive genes, Class 2 resistant cell lines: robust transcriptional agonist activity
